# Assay results published in patent US20250017914A1, “6-AZA-QUINOLINE DERIVATIVES AND RELATED USES” (Black Diamond Therapeutics, Inc., priority 2021, published 2025).
# Biological target: T1, BaF3 BRAF-KIAA1549 fusion cells (Homo sapiens, UniProt P15056)
# T1 construct: The BRAF-KIAA1549 fusion mutant was subcloned into pMXs-IRES-Blasticidin (RTV-016, Cell Biolabs, San Diego, CA); No tag given; Q9HCM3 (UPF0606 protein KIAA1549)
# Test: BaF3 BRAF-KIAA1549 fusion cell proliferation assay (CellTiterGlo, 96 hours)
# Format: cell-based
# Details: Table A1
# Procedure: Retroviral Production: The BRAF-KIAA1549 fusion mutant was subcloned into pMXs-IRES-Blasticidin (RTV-016, Cell Biolabs, San Diego, CA). Retrovirus was produced by transfection of HEK 293T cells with the retroviral BRAF mutant expression vector pMXs-IRES-Blasticidin (RTV-016, Cell Biolabs), pCMV-Gag-Pol vector and pCMV-VSV-G-Envelope vector. Briefly, HEK 293T cells were plated in Poly-D-lysine coated 6-well plate (2.5×10^5 cells per well) and incubated overnight. The next day, retroviral plasmids (1 μg of BRAF-KIAA fusion mutant, 0.32 μg of pCMV-Gag-Pol and 0.165 μg pCMV-VSV-G) were mixed in 300 μL of Optimem (31985, Life Technologies). The mixture was incubated at room temperature for 5 minutes and then added to Optimem containing transfection reagent Lipofectamine (11668, Invitrogen) and incubated for 20 minutes. The mixture was then added dropwise to HEK 293T cells. The next day the medium was replaced with fresh culture medium and retrovirus was harvested at 24 hours.
# Generation of BRAF-KIAA1549 fusion stable cell line: BaF3 cells were plated in V-bottom 96 well plate (COSTAR #3894) in 80 μL of RPMI/10% FBS and 0.01 ng/mL mouse IL-3, supplemented with 8 μg/mL polybrene (4×10^4 cells/well). Cells were transduced with 20 μL of BRAF-KIAA1549 fusion viral supernatant by centrifuging for 30 minutes at 1000 rpm. Cells were placed in a 37° C. incubator overnight. Next day 100 μL of RPMI/10% FBS and 0.01 ng/mL mouse IL-3 was added. After 24 hours, 100 μL of cells were transferred to a 24 well plate containing 900 μL of RPM/10% FBS and 15 μg/mL Blasticidin. Contents of the 24 well plate were sampled for cell viability via CellTiterGlo (Promega) over a 2-week period.
# Assay for cell proliferation: BaF3 BRAF-KIAA1549 fusion cells were resuspended at 1.5×10^5 c/mL in RPMI containing 10% Heat Inactivated FBS, 1% L-glutamine and dispensed in duplicate (7×10^4 c/well) into 384 well plates. To determine the effect of compound on cell proliferation, BaF3 BRAF-KIAA1549 fusion cells were incubated for 96 hours in the presence of vehicle control (DMSO) or compound at varying concentrations. Inhibition of cell growth was determined by luminescent quantification (Envision by Perkin Elmer) of intracellular ATP content using CellTiterGlo (Promega), according to the protocol provided by the manufacturer. To determine the IC50 values, the vehicle-treated cells were normalized as viable cells and analyzed using the CDD Vault, Collaborative Drug Discovery, Burlingame, CA (the Levenberg-Marquardt algorithm; Levenberg, K., […]; Marquardt, D., 1963).
# Tables A1 and A2 assign each compound a code for potency in the BaF3 BRAF-KIAA1549 fusion cell proliferation assay: A, B, C, or D. According to the code, A represents an IC50 value <20 nM; B represents an IC50 value ≥20 nM and <100 nM; C represents an IC50 value ≥100 nM and <500 nM; and D represents an IC50 value ≥500 nM.
# T1 sequence (P15056 whole entry, change not shown, the tested form may be a part): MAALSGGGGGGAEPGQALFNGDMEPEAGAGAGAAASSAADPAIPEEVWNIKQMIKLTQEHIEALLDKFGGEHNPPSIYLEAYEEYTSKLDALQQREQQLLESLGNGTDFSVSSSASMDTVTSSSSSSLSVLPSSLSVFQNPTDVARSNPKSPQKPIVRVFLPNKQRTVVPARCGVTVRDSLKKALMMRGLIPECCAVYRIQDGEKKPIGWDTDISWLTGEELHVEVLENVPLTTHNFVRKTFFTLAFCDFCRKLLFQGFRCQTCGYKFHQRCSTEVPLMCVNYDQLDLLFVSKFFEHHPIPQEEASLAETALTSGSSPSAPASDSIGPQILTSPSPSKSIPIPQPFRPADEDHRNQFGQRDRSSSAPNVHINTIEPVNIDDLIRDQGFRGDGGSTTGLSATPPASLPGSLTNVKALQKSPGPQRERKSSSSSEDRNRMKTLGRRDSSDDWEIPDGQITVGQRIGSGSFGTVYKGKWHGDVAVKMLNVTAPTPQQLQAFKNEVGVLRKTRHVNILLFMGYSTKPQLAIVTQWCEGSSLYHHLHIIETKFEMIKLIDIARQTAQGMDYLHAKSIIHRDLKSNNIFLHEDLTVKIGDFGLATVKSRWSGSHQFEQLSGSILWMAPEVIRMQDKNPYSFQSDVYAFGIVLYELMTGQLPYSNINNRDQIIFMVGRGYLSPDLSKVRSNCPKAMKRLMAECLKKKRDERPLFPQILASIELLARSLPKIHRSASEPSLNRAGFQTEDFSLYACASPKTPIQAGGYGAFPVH
row,SMILES,GI50 [nM]
1,"CNc1cc2ncc(-c3cc(NC(=O)c4ccnc(C(F)F)c4)cnc3C)cc2cn1 [Compound 28, 2-(Difluoromethyl)-N-(6-methyl-5-(7-(methylamino)-1,6-naphthyridin-3-yl)pyridin-3-yl)isonicotinamide]",100 to 500
2,"CNc1cc2ncc(-c3cc(NC(=O)c4ccnc(C5CC(F)(F)C5)c4)cnc3C)cc2cn1 [Compound 34, 2-(3,3-Difluorocyclobutyl)-N-(6-methyl-5-(7-(methylamino)-1,6-naphthyridin-3-yl)pyridin-3-yl)isonicotinamide]",20 to 100
3,"CNc1cc2ncc(-c3cc(NC(=O)c4cc(C(C)(C)C#N)ccn4)c(F)cc3Cl)cc2cn1 [Compound 37, N-(4-Chloro-2-fluoro-5-(7-(methylamino)-1,6-naphthyridin-3-yl)phenyl)-4-(2-cyanopropan-2-yl)picolinamide]",20 to 100
4,"CNc1cc2ncc(-c3cc(NC(=O)c4cc(C(C)(C)C#N)ccn4)cc(F)c3C)cc2cn1 [Compound 38, 4-(2-Cyanopropan-2-yl)-N-(3-fluoro-4-methyl-5-(7-(methylamino)-1,6-naphthyridin-3-yl)phenyl)picolinamide]",20 to 100
5,"CNc1cc2ncc(-c3cc(NC(=O)c4cc(C(C)(C)C#N)ccn4)cc(F)c3F)cc2cn1 [Compound 39, 4-(2-Cyanopropan-2-yl)-N-(3,4-difluoro-5-(7-(methylamino)-1,6-naphthyridin-3-yl)phenyl)picolinamide]",20 to 100
6,"CNc1cc2ncc(-c3cc(NC(=O)c4cc(C(C)(C)C#N)ccn4)ccc3F)cc2cn1 [Compound 40, 4-(2-cyanopropan-2-yl)-N-(4-fluoro-3-(7-(methylamino)-1,6-naphthyridin-3-yl)phenyl)picolinamide]",20 to 100
7,"CNc1cc2ncc(-c3cc(NC(=O)c4cc(C(C)(C)C#N)ccn4)ccc3Cl)cc2cn1 [Compound 41, N-(4-Chloro-3-(7-(methylamino)-1,6-naphthyridin-3-yl)phenyl)-4-(2-cyanopropan-2-yl)picolinamide]",20 to 100
8,"CNc1cc2ncc(-c3cc(NC(=O)c4cc(C(C)(C)C#N)ccn4)c(F)cc3C)cc2cn1 [Compound 42, 4-(2-Cyanopropan-2-yl)-N-(2-fluoro-4-methyl-5-(7-(methylamino)-1,6-naphthyridin-3-yl)phenyl)picolinamide]",20 to 100
9,"CNc1cc2ncc(-c3cc(NC(=O)c4cc(C(C)(C)C#N)ccn4)c(F)cc3F)cc2cn1 [Compound 43, 4-(2-Cyanopropan-2-yl)-N-(2,4-difluoro-5-(7-(methylamino)-1,6-naphthyridin-3-yl)phenyl)picolinamide]",20 to 100
10,"CNc1cc2ncc(-c3cc(NC(=O)c4cc(C(C)(C)C#N)ccn4)cc(F)c3Cl)cc2cn1 [Compound 44, N-(4-chloro-3-fluoro-5-(7-(methylamino)-1,6-naphthyridin-3-yl)phenyl)-4-(2-cyanopropan-2-yl)picolinamide]",20 to 100
11,"CNc1cc2ncc(-c3ccc(F)c(NC(=O)c4cc(C(C)(C)C#N)ccn4)c3)cc2cn1 [Compound 45, 4-(2-Cyanopropan-2-yl)-N-(2-fluoro-5-(7-(methylamino)-1,6-naphthyridin-3-yl)phenyl)picolinamide]",100 to 500
12,"CNc1cc2ncc(-c3cc(F)c(F)c(NC(=O)c4cc(C(C)(C)C#N)ccn4)c3)cc2cn1 [Compound 46, 4-(2-Cyanopropan-2-yl)-N-(2,3-difluoro-5-(7-(methylamino)-1,6-naphthyridin-3-yl)phenyl)picolinamide]",100 to 500
13,"CNc1cc2ncc(-c3cc(F)cc(NC(=O)c4cc(C(C)(C)C#N)ccn4)c3)cc2cn1 [Compound 47, 4-(2-Cyanopropan-2-yl)-N-(3-fluoro-5-(7-(methylamino)-1,6-naphthyridin-3-yl)phenyl)picolinamide]",100 to 500
14,"CNc1cc2ncc(-c3cc(NC(=O)c4cc(C(C)(C)C#N)ccn4)cc(Cl)c3C)cc2cn1 [Compound 48, N-(3-Chloro-4-methyl-5-(7-(methylamino)-1,6-naphthyridin-3-yl)phenyl)-4-(2-cyanopropan-2-yl)picolinamide]",≥ 500

# Other lines, results leading:
row,GI50 [nM],SMILES
1,< 20,"CNc1cc2ncc(-c3cc(NC(=O)c4cc(C(F)(F)F)ccn4)cnc3C)cc2cn1 [Compound 20, N-(6-Methyl-5-(7-(methylamino)-1,6-naphthyridin-3-yl)pyridin-3-yl)-4-(trifluoromethyl)picolinamide]"
2,20 to 100,"CNc1cc2ncc(-c3cc(NC(=O)c4cncc(C(F)(F)F)c4)cnc3C)cc2cn1 [Compound 21, N-(6-Methyl-5-(7-(methylamino)-1,6-naphthyridin-3-yl)pyridin-3-yl)-5-(trifluoromethyl)nicotinamide]"
3,20 to 100,"CNc1cc2ncc(-c3cc(NC(=O)c4cc(C(F)F)ccn4)cnc3C)cc2cn1 [Compound 22, 4-(Difluoromethyl)-N-(6-methyl-5-(7-(methylamino)-1,6-naphthyridin-3-yl)pyridin-3-yl)picolinamide]"
4,20 to 100,"CNc1cc2ncc(-c3cc(NC(=O)c4cc(C(C)(F)F)ccn4)cnc3C)cc2cn1 [Compound 23, 4-(1,1-Difluoroethyl)-N-(6-methyl-5-(7-(methylamino)-1,6-naphthyridin-3-yl)pyridin-3-yl)picolinamide]"
5,< 20,"CNc1cc2ncc(-c3cc(NC(=O)c4ccnc(C(C)(C)F)c4)cnc3C)cc2cn1 [Compound 24, 2-(2-Fluoropropan-2-yl)-N-(6-methyl-5-(7-(methylamino)-1,6-naphthyridin-3-yl)pyridin-3-yl)isonicotinamide]"
6,20 to 100,"CNc1cc2ncc(-c3cc(NC(=O)c4cc(C(F)(F)F)c(C)cn4)cnc3C)cc2cn1 [Compound 25, 5-Methyl-N-(6-methyl-5-(7-(methylamino)-1,6-naphthyridin-3-yl)pyridin-3-yl)-4-(trifluoromethyl)picolinamide]"
7,20 to 100,"CNc1cc2ncc(-c3cc(NC(=O)c4nccc(C(F)(F)F)c4Cl)cnc3C)cc2cn1 [Compound 26, 3-Chloro-N-(6-methyl-5-(7-(methylamino)-1,6-naphthyridin-3-yl)pyridin-3-yl)-4-(trifluoromethyl)picolinamide]"
8,< 20,"CNc1cc2ncc(-c3cc(NC(=O)c4ccnc(C(F)(F)F)c4)cnc3C)cc2cn1 [Compound 27, N-(6-Methyl-5-(7-(methylamino)-1,6-naphthyridin-3-yl)pyridin-3-yl)-2-(trifluoromethyl)isonicotinamide]"
9,< 20,"CNc1cc2ncc(-c3cc(NC(=O)c4ccnc(C(C)(F)F)c4)cnc3C)cc2cn1 [Compound 29, 2-(1,1-Difluoroethyl)-N-(6-methyl-5-(7-(methylamino)-1,6-naphthyridin-3-yl)pyridin-3-yl)isonicotinamide]"
10,20 to 100,"CNc1cc2ncc(-c3cc(NC(=O)c4cc(C(C)(C)C#N)ccn4)cnc3C)cc2cn1 [Compound 30, 4-(2-Cyanopropan-2-yl)-N-(6-methyl-5-(7-(methylamino)-1,6-naphthyridin-3-yl)pyridin-3-yl)picolinamide]"
11,20 to 100,"CNc1cc2ncc(-c3cc(NC(=O)c4cc(C5(C#N)CCC5)ccn4)cnc3C)cc2cn1 [Compound 31, 4-(1-Cyanocyclobutyl)-N-(6-methyl-5-(7-(methylamino)-1,6-naphthyridin-3-yl)pyridin-3-yl)picolinamide]"
12,< 20,"CNc1cc2ncc(-c3cc(NC(=O)c4cc(C5(C#N)CC5)ccn4)cnc3C)cc2cn1 [Compound 32, 4-(1-Cyanocyclopropyl)-N-(6-methyl-5-(7-(methylamino)-1,6-naphthyridin-3-yl)pyridin-3-yl)picolinamide]"
13,< 20,"CNc1cc2ncc(-c3cc(NC(=O)c4ccnc(C5(F)CC5)c4)cnc3C)cc2cn1 [Compound 33, 2-(1-Fluorocyclopropyl)-N-(6-methyl-5-(7-(methylamino)-1,6-naphthyridin-3-yl)pyridin-3-yl)isonicotinamide]"
